Article PMC4775225, “Bromodomain inhibition of the transcriptional coactivators CBP/EP300 as a therapeutic strategy to target the IRF4 network in multiple myeloma” (eLife, 2016)

Key:
[1] = biological target: CBP-bromodomain/BRD9 ZsGreen fusion protein (Homo sapiens, UniProt Q92793); assay: cell-based
[2] = biological target: T1, CBP bromodomain (amino acids 1082–1197) (Homo sapiens, UniProt Q92793); assay: AlphaLISA, acetylated peptide binding to CBP bromodomain
T1 construct: His-Flag-tagged CBP bromodomain (amino acids 1082–1197)
T1 sequence (Q92793 1082-1197): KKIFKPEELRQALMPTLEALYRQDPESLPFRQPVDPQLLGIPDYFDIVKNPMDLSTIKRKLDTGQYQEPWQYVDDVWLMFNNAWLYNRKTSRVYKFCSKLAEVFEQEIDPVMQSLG
Description: Compound at varying concentrations were dispensed into 384 well Proxiplates (Perkin Elmer) using Echo technology (Labcyte, Inc.; Sunnyvale, CA). For CBP assays, 0.5 μM His-Flag-tagged CBP bromodomain (amino acids 1082–1197) was incubated with 0.003 μM H4-TetraAc-biotin for 20 min at room temperature in 1x reaction buffer (50 mM HEPES pH 7.5, 1 mM TCEP, 0.069 mM Brij-35, 150 mM NaCl, and 0.1 mg/ml BSA). Streptavidin acceptor beads and nickel donor beads (Perkin Elmer) were added to 15 μg/ml with a Combi Multidrop dispenser. Plates were sealed and incubated at 90 min in the dark at room temperature, and plates were read on an Envision plate reader (Perkin Elmer) according to manufacturer’s instructions. For the BET assays, the protocol was similar except that BET family bromodomains were used at 0.03 μM (BRD4-BD1) and incubated with 0.2 μM H4-TetraAc-biotin for 20 min in reaction buffer (40 mM HEPES pH7.0, 1 mM DTT, 0.069 mM Brij-35, 40 mM NaCl, and 0.1 mg/ml BSA). Streptavidin donor beads and Anti-Flag Acceptor beads (Perkin Elmer) were added to 10 μg/ml, and then plates were sealed and incubated in the dark for 60 min prior to reading on the Envision.

Nalm6 = assay: Viability, resazurin, 6 days; format: cell-based; details: Homo sapiens, NALM-6, 144 h, Nalm6, ALL
Description: Cells were plated at 5000–10000 cells per well of 96-well plates containing titrations of the compounds as indicated. After incubation, the cells were incubated with 500 μg/ml resazurin (Sigma) in PBS for 2–8 hr, and fluorescence was measured (Ex 530 nm, Em 590 nm). Cell cycle analysis was performed as described previously ([Mertz et al., 2011]). For visualization, DNA content histograms were generated with GraphPad Prism. Dose-response curves were generated by plotting the normalized percent growth, percent sub-G1 and percent increase in G0/G1 at each dose values. GI50 values were determined as the concentration at which viability was 50% of the DMSO value and calculated by a four-parameter non-linear regression model in GraphPad Prism.

[3] = tested on: H3K18 and H3K27 acetylation in LP-1 cells; assay: Western analysis of global histone acetylation; format: cell-based, human; details: LP-1, 16 hr
Description: Whole cell extracts were prepared by lysis in RIPA buffer + EDTA (Boston Bioproducts, Inc.; Ashland, MA) with protease inhibitor cocktail (Roche Life Sciences; Indianapolis, IN). Extracts were subjected to SDS-PAGE and Western analysis with MYC (Cell Signaling (Danvers, MA) #5605), IRF4 (Cell Signaling #4964 or #4948), GAPDH (Life Technologies AM4300), CBP (Santa Cruz (Dallas, TX) sc-369), EP300 (Santa Cruz sc-584), or β-actin (Life Technologies AM4302) primary antibodies. For histone analysis, extracts were prepared by sulfuric acid extraction of permeablized nuclei, and extracted histones were subjected to SDS-PAGE and Western analysis with H3K18ac (Cell Signaling #9675), H3K27ac (EMD Millipore (Billerica, MA) 07–360), or H4 (Abcam (Cambridge, MA) 31830). Blots were incubated with DyLight conjugated secondary antibodies, imaged and quantified with a Licor fluorescence imager (Licor, Inc.; Lincoln, NE), or with HRP- conjugated secondary antibodies for ECL visualization.

CBP-bromodomain/BRD9 ZsGreen fusion protein, sequence (Q92793 1085-1192): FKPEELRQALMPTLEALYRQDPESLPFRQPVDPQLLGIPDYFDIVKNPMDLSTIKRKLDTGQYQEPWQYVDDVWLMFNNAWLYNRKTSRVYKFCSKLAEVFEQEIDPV
CBP-bromodomain/BRD9 ZsGreen fusion protein, sequence (Q9H8M2 with tags, fused parts or gaps partner): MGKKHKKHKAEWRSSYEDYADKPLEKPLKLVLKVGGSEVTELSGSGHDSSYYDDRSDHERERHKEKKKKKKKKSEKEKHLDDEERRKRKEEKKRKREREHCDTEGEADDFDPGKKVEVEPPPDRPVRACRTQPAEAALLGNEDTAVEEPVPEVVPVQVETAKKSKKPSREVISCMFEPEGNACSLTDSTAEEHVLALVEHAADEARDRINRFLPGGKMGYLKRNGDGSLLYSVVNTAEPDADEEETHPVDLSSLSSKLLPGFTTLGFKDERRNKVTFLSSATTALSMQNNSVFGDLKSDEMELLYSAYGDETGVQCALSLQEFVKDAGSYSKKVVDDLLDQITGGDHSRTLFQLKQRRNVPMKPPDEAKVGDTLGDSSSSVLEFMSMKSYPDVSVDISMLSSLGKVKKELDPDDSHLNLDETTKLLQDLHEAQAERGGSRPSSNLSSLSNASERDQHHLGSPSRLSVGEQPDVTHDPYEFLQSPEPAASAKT

SMILES	EC50 [1]	IC50 [2]	GI50 (Nalm6)	changes in the global levels of H3K18 or H3K27 acetylation [3]
CCC(=O)N1CCOc2c(cc(-c3ccc(OC)c(OC)c3)cc2OC[C@H]2CCCN(C)C2)C1 [I-CBP112]	1.7 ± 0.34 µM	0.19 ± 0.02 µM		
COc1ccc(CCc2nc3cc(-c4c(C)noc4C)ccc3n2C[C@H](C)N2CCOCC2)cc1Cl [SGC-CBP30]			3.86 µM	did not observe any significant changes
